Results from patent US20230159496A1, “COMPOUNDS AND METHODS FOR MODULATING SPLICING” (REMIX THERAPEUTICS INC., priority 2020, published 2023).
Where two headings read alike, the source gives them in different places.

Key:
Type in all cases: cell-based
HTT mRNA = assay: Splicing assay (RT-qPCR) monitoring HTT canonical junction (CJ) and alternative junction (AJ) mRNA isoforms; conditions: A673 or K562 cells, 24 h treatment, top dose 10 uM
Method in brief: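 A673 or K562 cells treated 24 h at 37 °C with an 11-point 3-fold dilution (top 10 uM final, DMSO ≤0.25%). Lysates assayed by one-step RT-qPCR for HTT CJ and AJ isoforms, normalized to GAPDH, GUSB (K562) or PPIA (A673).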

Target C CJ mRNA = assay: Gene panel canonical junction qPCR assay, Target C; conditions: decrease in CJ mRNA levels, gene panel; read-out: Target C IC50
Method: The expression of a target mRNA was measured by detecting the formation of an exon-exon junction in the canonical transcript (CJ). A compound mediated exon-inclusion event was detected by observing an increase in formation of a new junction with an alternative exon (AJ). Real-time qPCR assays were used to detect these splicing switches and interrogate the potency of various compounds towards different target genes. A high-throughput real time quantitative PCR (RT-qPCR) assay was developed to measure these two isoforms of the mRNA (CJ and AJ) for an exemplary gene, HTT, together with a control housekeeping gene, GAPDH or GUSB or PPIA, used for normalization. Briefly, the A673 or K562 cell line was treated with various compounds described herein (e.g., compounds of Formula (I)). After treatment, the levels of the HTT mRNA targets were determined from each sample of cell lysate by cDNA synthesis followed by qPCR. The A673 cell line was cultured in DMEM with 10% FBS. Cells were diluted with full growth media and plated in a 96-well plate (15,000 cells in 100 ul media per well). The plate was incubated at 37° C. with 5% CO2 for 24 hours to allow cells to adhere. An 11-point 3-fold serial dilution of the compounds was made in DMSO then diluted in media in an intermediate plate. Compounds were transferred from the intermediate plate to the cell plate with the top dose at a final concentration of 10 uM in the well. Final DMSO concentration was kept at or below 0.25%. The cell plate was returned to the incubator at 37° C. with 5% CO2 for an additional 24 hours. The K562 cell line was cultured in IMDM with 10% FBS. For K562, cells were diluted with full growth media and plated in either a 96-well plate (50,000 cells in 50 uL media per well) or a 384-well plate (8,000-40,000 cells in 45 uL media per well). An 11-point 3-fold serial dilution of the compounds were made in DMSO then diluted in media in an intermediate plate. Compound was transferred from the intermediate plate to the cell plate with the top dose at a final concentration of 10 uM in the well. Final DMSO concentration was kept at or below 0.25%. Final volume was 100 uL for 96-well plate and 50 uL for 384-well plate. The cell plate was then placed in an incubator at 37° C. with 5% CO2 for 24 hours. The cells were then gently washed with 50 uL-100 uL cold PBS before proceeding to addition of lysis buffer. 30 uL-50 uL of room temperature lysis buffer with DNAse I (and optionally RNAsin) was added to each well. Cells were shaken/mixed thoroughly at room temperature for 5-10 minutes for lysis to take place and then 3 uL-5 uL of room temperature stop solution was added and wells were shaken/mixed again. After 2-5 minutes, the cell lysate plate was transferred to ice for RT-qPCR reaction setup. The lysates could also be frozen at −80° C. for later use. In some cases, a direct lysis buffer was used. An appropriate volume of 3× lysis buffer (10 mM Tris, 150 mM NaCl, 1.5%-2.5% Igepal and 0.1-1 U/uL RNAsin, pH 7.4) was directly added to either K562 or A673 cells in media and mixed by pipetting 3 times. The plates were then incubated at room temperature with shaking/rocking for 20-50 minutes to allow for lysis to take place. After this time, the cell lysate plate was transferred to ice to set up for the RT-qPCR reactions. The lysates could also be frozen at −80° C. for later use. To set up 10 uL RT-qPCR reactions, cell lysates were transferred to 384-well qPCR plates containing the master mix according to the table below. The plates were sealed, gently vortexed, and spun down before the run. The volumes were adjusted accordingly in some instances where the reaction was carried in 20 uL. The table below summarizes the components of the RT-qPCR reactions: The RT-qPCR reaction was performed using a QuantStudio (ThermoFisher) under the following fast cycling conditions. All samples and standards were analyzed at least in duplicate.

SMN2 CJ mRNA = assay: Gene panel canonical junction qPCR assay, SMN2; conditions: decrease in CJ mRNA levels, gene panel; read-out: SMN2 IC50
Method in brief: (§1)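 A673 or K562 cells were treated for 24 h at 37 °C with an 11-point 3-fold dilution, top dose 10 uM, DMSO ≤0.25%. Canonical junction mRNA in lysates was quantified by one-step RT-qPCR and normalized to GAPDH, GUSB or PPIA.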

HTT CJ mRNA = assay: Gene panel canonical junction qPCR assay, HTT; conditions: decrease in CJ mRNA levels, gene panel; read-out: HTT IC50
Method in brief: as §1

[1] = decrease in CJ mRNA (50% response), read-out: HTT CJ AC50
[2] = increase in AJ mRNA (50% response), read-out: HTT AJ AC50

Row | SMILES | IC50 (Target C CJ mRNA) | IC50 (SMN2 CJ mRNA) | IC50 (HTT CJ mRNA) | AC50 (HTT mRNA; [1]) | AC50 (HTT mRNA; [2])
1 | Cc1cn2nc(-c3ccc4nc(NC5CCNCC5)[nH]c(=O)c4c3)cc(C)c2n1 [Compound 192, 6-(2,8-dimethylimidazo[1,2-b]pyridazin-6-yl)-2-(piperidin-4-ylamino)quinazolin-4(3H)-one] | > 10 µM | > 10 µM | > 10 µM | > 10 µM | > 10 µM
2 | Cc1cn2cc(-c3ccc4c(c3)CCN(C3CCNCC3)C4=O)cc(C)c2n1 [Compound 217] | > 10 µM | 0.1 to 1 µM | 1 to 10 µM | 1 to 10 µM | 1 to 10 µM
3 | Cc1cc(-c2ccc3nc(NC4CCN(C)CC4)[nH]c(=O)c3c2)cc2cn(C)nc12 [Compound 167] | > 10 µM | > 10 µM | > 10 µM | > 10 µM | > 10 µM
4 | Cc1cc(-c2ccc3c(=O)n(C4CC(C)(C)NC(C)(C)C4)cnc3n2)cc2cn(C)nc12 [Compound 179] | > 10 µM | 1 to 10 µM | > 10 µM | > 10 µM | > 10 µM
5 | Cc1cn2cc(-c3ccc4nc(N5CCNC6(CC6)C5)[nH]c(=O)c4c3)cc(F)c2n1 [Compound 191, 6-(8-fluoro-2-methylimidazo[1,2-a]pyridin-6-yl)-2-(4,7-diazaspiro[2.5]octan-7-yl)quinazolin-4(3H)-one] | > 10 µM | > 10 µM | > 10 µM | > 10 µM | > 10 µM
6 | Cc1nc2c(F)cc(-c3ccc4c(=O)n(C5CCNCC5)cnc4c3)cc2o1 [Compound 245] | 0.1 to 1 µM | < 0.1 µM | 0.1 to 1 µM | 0.1 to 1 µM | 0.1 to 1 µM
7 | Cc1cc(-c2ccc3c(=O)n(C4CCN(C)CC4)cnc3c2F)cc2cn(C)nc12 [Compound 235, 7-(2,7-dimethyl-2H-indazol-5-yl)-8-fluoro-3-(1-methylpiperidin-4-yl)quinazolin-4(3H)-one] | > 10 µM | 0.1 to 1 µM | > 10 µM | > 10 µM | > 10 µM
8 | CN1CCN(c2ccc3c(=O)n(-c4ccc5nn(C)cc5c4)cnc3c2)CC1 [Compound 152, 3-(2-methyl-2H-indazol-5-yl)-7-(4-methylpiperazin-1-yl)quinazolin-4(3H)-one] | > 10 µM | > 10 µM | > 10 µM | > 10 µM | > 10 µM
9 | Cc1cn2nc(-c3ccc4c(=O)n(C5CCNC5)ncc4c3)cc(C)c2n1 (centres unmarked) [Compound 264, 6-{2,8-dimethylimidazo[1,2-b]pyridazin-6-yl}-2-(pyrrolidin-3-yl)phthalazin-1-one] | > 10 µM | 0.1 to 1 µM | 1 to 10 µM | 1 to 10 µM | 1 to 10 µM
10 | Cc1cn2nc(-c3ccc4c(c3)CCN(C3CCNCC3)C4=O)cc2c(C)n1 [Compound 223] | > 10 µM | 0.1 to 1 µM | 1 to 10 µM | 1 to 10 µM | 1 to 10 µM
11 | Cc1cn2cc(-c3ccc4c(c3)CCN(C3CCNCC3)C4=O)cc(Cl)c2n1 [Compound 216] | 1 to 10 µM | < 0.1 µM | 1 to 10 µM | 1 to 10 µM | 1 to 10 µM
12 | Cc1cn2cc(-c3ccc4c(=O)n(C5CCNCC5)ncc4c3)cc(F)c2n1 [Compound 248, 6-[8-fluoro-2-methylimidazo[1,2-a]pyridin-6-yl]-2-(piperidin-4-yl)phthalazin-1-one] | 0.1 to 1 µM | < 0.1 µM | < 0.1 µM | < 0.1 µM | 0.1 to 1 µM
13 | Cn1cc2cc(-n3cnc4cc(C5=CC6CCC(C5)N6)ccc4c3=O)ccc2n1 (centres unmarked) [Compound 160, 7-(8-azabicyclo[3.2.1]oct-2-en-3-yl)-3-(2-methyl-2H-indazol-5-yl)quinazolin-4(3H)-one] | > 10 µM | > 10 µM | > 10 µM | > 10 µM | > 10 µM

The next lines start with results.

Row | IC50 (Target C CJ mRNA) | IC50 (SMN2 CJ mRNA) | IC50 (HTT CJ mRNA) | SMILES | AC50 (HTT mRNA; [1]) | AC50 (HTT mRNA; [2])
14 | > 10 µM | < 0.1 µM | 1 to 10 µM | Cc1cn2nc(-c3ccc4c(c3)CCN(C3CCN(C)CC3)C4=O)cc(C)c2n1 [Compound 268] | 1 to 10 µM | 1 to 10 µM
15 | 1 to 10 µM | 0.1 to 1 µM | 1 to 10 µM | Cc1cn2nc(-c3ccc4c(=O)n(C5CCN(C)C5)ncc4c3)cc(C)c2n1 (centres unmarked) [Compound 271, 6-{2,8-dimethylimidazo[1,2-b]pyridazin-6-yl}-2-(1-methylpyrrolidin-3-yl)phthalazin-1-one] | 1 to 10 µM | 1 to 10 µM
16 | > 10 µM | > 10 µM | > 10 µM | CN1CCC(n2cnc3cc(-c4cn[nH]c4)ccc3c2=O)CC1 [Compound 299] | > 10 µM | > 10 µM
17 | > 10 µM | < 0.1 µM | 1 to 10 µM | Cc1nc2c(F)cc(-c3ccc4c(=O)n(C5CCNCC5)cnc4c3)cc2s1 [Compound 285] | 1 to 10 µM | > 10 µM
18 | < 0.1 µM | < 0.1 µM | < 0.1 µM | Cc1cn2nc(-c3ccc4c(=O)n(C5CCNC6(CC6)C5)ncc4c3)cc(C)c2n1 (centres unmarked) [Compound 274] | < 0.1 µM | < 0.1 µM
19 | 0.1 to 1 µM | < 0.1 µM | < 0.1 µM | CCN1CCC(n2ncc3cc(-c4cc(C)c5nc(C)cn5n4)ccc3c2=O)CC1 [Compound 266] | < 0.1 µM | < 0.1 µM
